Reference: PubChem BioAssay AID248 (DTP/NCI, 2004)
Several values for one entry are separate records, joined by “and”; a condition that tells them apart may be missing. Equal entries are not always repeated. Toxic doses and inconclusive results are not listed. Rule as the data show it: active = T/C of 150% or more; inactive = T/C below 125%.

Tested on: L1210 leukemia ip in BDF1 mice, survival T/C
Assay: NCI In Vivo Anticancer Drug Screen. Data for tumor model L1210 Leukemia (intraperitoneal) in B6D2F1 (BDF1) mice
Conditions: endpoint: mean survival time, higher = longer survival
In short: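 Survival endpoint. Drug-treated group vs vehicle group, expressed as T divided by C. Tumor passaged by transplantation.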

[1] = dose: 100.0 mg/kg/injection, schedule: Q01DX001 (ip), vehicle: carboxymethylcellulose (CMC)
[2] = dose: 200.0 mg/kg/injection, schedule: Q01DX001 (ip), vehicle: carboxymethylcellulose (CMC)
[3] = dose: 100.0 mg/kg/injection, schedule: Q01DX001 (ip), vehicle: saline
[4] = dose: 200.0 mg/kg/injection, schedule: Q01DX001 (ip), vehicle: saline
[5] = dose: 400.0 mg/kg/injection, schedule: Q01DX001 (ip), vehicle: saline
[6] = dose: 100.0 mg/kg/injection, schedule: Q04DX003 (ip), vehicle: Klucel (hydroxypropylcellulose) (HPC)
[7] = dose: 200.0 mg/kg/injection, schedule: Q04DX003 (ip), vehicle: Klucel (hydroxypropylcellulose) (HPC)
[8] = dose: 400.0 mg/kg/injection, schedule: Q04DX003 (ip), vehicle: Klucel (hydroxypropylcellulose) (HPC)
[9] = dose: 50.0 mg/kg/injection, schedule: Q01DX001 (ip), vehicle: saline
[10] = dose: 50.0 mg/kg/injection, schedule: Q01DX009 (ip), vehicle: saline with Tween-80
[11] = dose: 100.0 mg/kg/injection, schedule: Q04DX003 (ip), vehicle: saline with Tween-80
[12] = dose: 200.0 mg/kg/injection, schedule: Q04DX003 (ip), vehicle: saline with Tween-80
[13] = dose: 400.0 mg/kg/injection, schedule: Q04DX003 (ip), vehicle: saline with Tween-80

Measured: T/C

CC(=O)Nc1ccc(C(=O)O)cc1[N+](=O)[O-]
inactive: [1] 99 % of control | dose: 100.0 mg/kg/injection, schedule: Q01DX009 (ip), vehicle: carboxymethylcellulose (CMC) 95 % of control and 105 % of control | dose: 100.0 mg/kg/injection, schedule: Q04DX002 (ip), vehicle: Klucel (hydroxypropylcellulose) (HPC) 95 % of control | dose: 100.0 mg/kg/injection, schedule: Q04DX002 (ip), vehicle: carboxymethylcellulose (CMC) 106 % of control and 90 % of control | dose: 100.0 mg/kg/injection, schedule: Q04DX003 (ip), vehicle: carboxymethylcellulose (CMC) 97 % of control | [2] 97 % of control | dose: 200.0 mg/kg/injection, schedule: Q01DX009 (ip), vehicle: carboxymethylcellulose (CMC) 98 % of control and 107 % of control | dose: 200.0 mg/kg/injection, schedule: Q04DX002 (ip), vehicle: Klucel (hydroxypropylcellulose) (HPC) 98 % of control | dose: 200.0 mg/kg/injection, schedule: Q04DX002 (ip), vehicle: carboxymethylcellulose (CMC) 93 % of control and 101 % of control | dose: 200.0 mg/kg/injection, schedule: Q04DX003 (ip), vehicle: carboxymethylcellulose (CMC) 105 % of control | dose: 400.0 mg/kg/injection, schedule: Q01DX009 (ip), vehicle: carboxymethylcellulose (CMC) 93 % of control and 91 % of control | dose: 400.0 mg/kg/injection, schedule: Q04DX002 (ip), vehicle: Klucel (hydroxypropylcellulose) (HPC) 98 % of control | dose: 400.0 mg/kg/injection, schedule: Q04DX002 (ip), vehicle: carboxymethylcellulose (CMC) 93 % of control and 90 % of control | dose: 400.0 mg/kg/injection, schedule: Q04DX003 (ip), vehicle: carboxymethylcellulose (CMC) 91 % of control

CC1CN1P(=S)(Oc1ccccc1)N1CC1C (stereo not given)
inactive: dose: 7.0 mg/kg/injection, schedule: Q01DX015 (ip), vehicle: carboxymethylcellulose (CMC) 94 % of control | dose: 13.0 mg/kg/injection, schedule: Q01DX015 (ip), vehicle: carboxymethylcellulose (CMC) 98 % of control | dose: 25.0 mg/kg/injection, schedule: Q01DX015 (ip), vehicle: carboxymethylcellulose (CMC) 97 % of control | dose: 50.0 mg/kg/injection, schedule: Q01DX015 (ip), vehicle: carboxymethylcellulose (CMC) 91 % of control | [3] 105 % of control | dose: 100.0 mg/kg/injection, schedule: Q01DX015 (ip), vehicle: carboxymethylcellulose (CMC) 103 % of control | [4] 102 % of control | dose: 200.0 mg/kg/injection, schedule: Q01DX015 (ip), vehicle: saline 95 % of control | [5] 100 % of control | dose: 400.0 mg/kg/injection, schedule: Q01DX015 (ip), vehicle: saline 91 % of control | dose: 800.0 mg/kg/injection, schedule: Q01DX001 (ip), vehicle: saline 95 % of control | dose: 1600.0 mg/kg/injection, schedule: Q01DX001 (ip), vehicle: saline 103 % of control

Cc1ccc(NC(=O)Nc2ccccc2C(N)=O)c([N+](=O)[O-])c1
inactive: [6] 90 % of control | [7] 87 % of control | [8] 90 % of control

O=S(=O)(Cc1ccccc1)/C(=C\c1ccccc1)c1ccccc1
inactive: [9] 105 % of control | [3] 105 % of control | [4] 105 % of control | [5] 103 % of control

OCC1C2CCC(C2)C1CO (stereo not given)
inactive: [10] 96 % of control

CCO/C=C1\SC(=S)N(c2ccc(C(=O)O)cc2)C1=O
inactive: dose: 25.0 mg/kg/injection, schedule: Q01DX009 (ip), vehicle: saline with Tween-80 108 % of control | [10] 100 % of control | dose: 100.0 mg/kg/injection, schedule: Q01DX009 (ip), vehicle: saline sonified 97 % of control | dose: 100.0 mg/kg/injection, schedule: Q04DX003 (ip), vehicle: saline sonified 99 % of control | dose: 200.0 mg/kg/injection, schedule: Q04DX003 (ip), vehicle: saline sonified 102 % of control | dose: 400.0 mg/kg/injection, schedule: Q04DX003 (ip), vehicle: saline sonified 108 % of control

COc1ccc(C(=O)OCCN(CCOC(=O)c2ccc(OC)cc2)c2c[nH]c(=O)[nH]c2=O)cc1
inactive: dose: 50.0 mg/kg/injection, schedule: Q01DX001 (ip), vehicle: carboxymethylcellulose (CMC) 106 % of control | [1] 93 % of control | [2] 95 % of control | dose: 400.0 mg/kg/injection, schedule: Q01DX001 (ip), vehicle: carboxymethylcellulose (CMC) 93 % of control

Nc1nnnn1N(Cc1ccccc1)Cc1ccccc1
inactive: [6] 96 % of control | [7] 117 % of control

O=C(CCCC(=O)NNC(=O)Nc1cc(Cl)ccc1Cl)NNC(=O)Nc1cc(Cl)ccc1Cl
inactive: [9] 108 % of control | [3] 102 % of control | [4] 102 % of control | [5] 102 % of control

CCOc1cc(N2CCOCC2)c(OCC)cc1N
inactive: dose: 6.0 mg/kg/injection, schedule: Q01DX009 (ip), vehicle: saline 103 % of control | dose: 12.0 mg/kg/injection, schedule: Q01DX009 (ip), vehicle: saline 100 % of control | dose: 12.0 mg/kg/injection, schedule: Q04DX003 (ip), vehicle: other 100 % of control | dose: 25.0 mg/kg/injection, schedule: Q01DX009 (ip), vehicle: saline 94 % of control | dose: 25.0 mg/kg/injection, schedule: Q04DX003 (ip), vehicle: other 95 % of control

c1ccc(C(NC2=NCCCCCC2)c2ccco2)cc1 (stereo not given)
inactive: dose: 12.5 mg/kg/injection, schedule: Q01DX009 (ip), vehicle: Klucel (hydroxypropylcellulose) (HPC) 98 % of control | dose: 25.0 mg/kg/injection, schedule: Q01DX009 (ip), vehicle: Klucel (hydroxypropylcellulose) (HPC) 100 % of control

Nc1nc(SCc2ccccc2)c2ncn(CCCl)c2n1
inactive: dose: 5.0 mg/kg/injection, schedule: Q01DX001 (ip), vehicle: carboxymethylcellulose (CMC) 107 % of control | dose: 10.0 mg/kg/injection, schedule: Q01DX001 (ip), vehicle: carboxymethylcellulose (CMC) 107 % of control | dose: 13.0 mg/kg/injection, schedule: Q01DX Z (ip), vehicle: carboxymethylcellulose (CMC) 105 % of control | dose: 20.0 mg/kg/injection, schedule: Q01DX001 (ip), vehicle: carboxymethylcellulose (CMC) 107 % of control | dose: 40.0 mg/kg/injection, schedule: Q01DX001 (ip), vehicle: carboxymethylcellulose (CMC) 120 % of control | dose: 67.0 mg/kg/injection, schedule: Q01DX Z (ip), vehicle: carboxymethylcellulose (CMC) 116 % of control | dose: 80.0 mg/kg/injection, schedule: Q01DX001 (ip), vehicle: carboxymethylcellulose (CMC) 122 % of control | dose: 100.0 mg/kg/injection, schedule: Q01DX Z (ip), vehicle: carboxymethylcellulose (CMC) 101 % of control | dose: 150.0 mg/kg/injection, schedule: Q01DX Z (ip), vehicle: carboxymethylcellulose (CMC) 90 % of control | dose: 320.0 mg/kg/injection, schedule: Q01DX001 (ip), vehicle: carboxymethylcellulose (CMC) 116 % of control
active: dose: 30.0 mg/kg/injection, schedule: Q01DX Z (ip), vehicle: carboxymethylcellulose (CMC) 150 % of control

O=C(O)CCCNC(=O)C(F)(F)F
inactive: dose: 100.0 mg/kg/injection, schedule: Q01DX001 (ip), vehicle: saline with Tween-80 95 % of control and 98 % of control | dose: 100.0 mg/kg/injection, schedule: Q04DX002 (ip), vehicle: saline with Tween-80 101 % of control and 103 % of control | [11] 100 % of control | dose: 200.0 mg/kg/injection, schedule: Q01DX001 (ip), vehicle: saline with Tween-80 95 % of control and 91 % of control | dose: 200.0 mg/kg/injection, schedule: Q04DX002 (ip), vehicle: saline with Tween-80 95 % of control and 92 % of control | [12] 95 % of control and 96 % of control | dose: 400.0 mg/kg/injection, schedule: Q01DX001 (ip), vehicle: saline with Tween-80 96 % of control and 92 % of control | dose: 400.0 mg/kg/injection, schedule: Q04DX002 (ip), vehicle: saline with Tween-80 100 % of control and 108 % of control | [13] 93 % of control and 100 % of control

CCCCCCCCCCCCCCCCCOC(=O)CCCCCCCCCCCCCCCCC
inactive: [11] 103 % of control | [12] 92 % of control | [13] 89 % of control

CC1CCN(c2ccc([N+](=O)[O-])cc2[N+](=O)[O-])CC1
inactive: dose: 100.0 mg/kg/injection, schedule: Q01DX009 (ip), vehicle: Klucel (hydroxypropylcellulose) (HPC) 99 % of control | [6] 104 % of control | dose: 200.0 mg/kg/injection, schedule: Q01DX009 (ip), vehicle: Klucel (hydroxypropylcellulose) (HPC) 99 % of control | [7] 98 % of control | [8] 103 % of control
